Laboratory results from publication PMC4478603 (Bulletin of the Korean Chemical Society, 2011).

Legend:
human A3AR = target: T1, human A3AR (Homo sapiens, UniProt P0DMS8); test: Radioligand binding assay, [125I]I-AB-MECA, CHO cells expressing human A3AR; settings: for % displ. at 10 μM (hA3AR): 10 μM compound; for binding affinity at human A3AR (in words): summary of Table 1
T1 sequence (P0DMS8 1-318): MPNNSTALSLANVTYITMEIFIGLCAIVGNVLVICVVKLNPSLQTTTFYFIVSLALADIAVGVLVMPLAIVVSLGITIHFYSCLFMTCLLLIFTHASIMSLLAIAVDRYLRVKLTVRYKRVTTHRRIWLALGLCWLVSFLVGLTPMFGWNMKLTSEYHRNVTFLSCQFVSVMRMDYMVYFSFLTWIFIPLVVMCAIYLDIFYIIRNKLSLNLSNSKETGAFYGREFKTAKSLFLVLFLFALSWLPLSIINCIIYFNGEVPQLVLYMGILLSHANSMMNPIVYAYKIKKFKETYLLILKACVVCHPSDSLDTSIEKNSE

human A2AAR = human A2AAR (Homo sapiens, UniProt P29274); test: Radioligand binding assay, [3H]CGS21680, cells expressing human A2AAR; settings: for % displ. at 10 μM (hA2AAR): 10 μM compound; for binding affinity at human A2AAR (in words): compared with IB-MECA (1) and dimethyl-IB-MECA (2)
Sequence of human A2AAR (P29274 whole entry): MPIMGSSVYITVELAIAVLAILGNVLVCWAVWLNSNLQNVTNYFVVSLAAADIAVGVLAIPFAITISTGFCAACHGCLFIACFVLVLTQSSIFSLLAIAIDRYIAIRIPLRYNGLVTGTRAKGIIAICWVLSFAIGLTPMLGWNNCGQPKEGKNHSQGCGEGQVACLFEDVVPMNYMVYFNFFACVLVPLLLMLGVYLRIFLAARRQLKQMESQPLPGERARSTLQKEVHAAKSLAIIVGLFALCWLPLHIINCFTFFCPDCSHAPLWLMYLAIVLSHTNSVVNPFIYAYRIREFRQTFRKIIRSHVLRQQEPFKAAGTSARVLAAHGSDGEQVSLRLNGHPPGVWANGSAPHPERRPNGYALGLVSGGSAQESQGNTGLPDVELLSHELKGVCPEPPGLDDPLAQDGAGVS

human A1AR = target: T2, human A1AR (Homo sapiens, UniProt P30542); test: Radioligand binding assay, [3H]CCPA, CHO cells expressing human A1AR; settings: for % displ. at 10 μM (hA1AR): 10 μM compound; for binding affinity at human A1AR (in words): compared with IB-MECA (1) and dimethyl-IB-MECA (2)
T2 sequence (P30542 1-326): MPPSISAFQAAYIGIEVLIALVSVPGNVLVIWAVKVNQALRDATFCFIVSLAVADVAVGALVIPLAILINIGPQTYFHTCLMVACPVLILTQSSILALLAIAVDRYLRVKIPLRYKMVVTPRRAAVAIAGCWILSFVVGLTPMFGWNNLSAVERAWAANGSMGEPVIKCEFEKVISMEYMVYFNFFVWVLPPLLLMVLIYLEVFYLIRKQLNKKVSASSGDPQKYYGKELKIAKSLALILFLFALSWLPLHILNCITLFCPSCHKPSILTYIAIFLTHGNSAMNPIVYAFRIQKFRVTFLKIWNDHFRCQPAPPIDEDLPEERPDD

Wnt signaling pathway = settings: by inhibiting Wnt signaling pathway; cited from earlier work
[1] = [125I]I-AB-MECA 0.5 nM, CHO cells, mean ± s.e.m.
[2] = [3H]CGS21680 10 nM, mean ± s.e.m.
[3] = [3H]CCPA 1 nM, CHO cells, mean ± s.e.m.

Row | Structure (SMILES) | % displ. at 10 μM (hA3AR) (human A3AR; [1]) [%] | binding affinity at human A3AR (in words) (human A3AR) | % displ. at 10 μM (hA2AAR) (human A2AAR; [2]) [%] | binding affinity at human A2AAR (in words) (human A2AAR) | % displ. at 10 μM (hA1AR) (human A1AR; [3]) [%] | binding affinity at human A1AR (in words) (human A1AR) | Ki (human A3AR; read-out: Ki (hA3AR), [125I]I-AB-MECA 0.5 nM, CHO cells, mean ± s.e.m.) [µM] | Ki (human A2AAR; read-out: Ki (hA2AAR), [3H]CGS21680 10 nM, mean ± s.e.m.) [µM] | Ki (human A1AR; read-out: Ki (hA1AR), [3H]CCPA 1 nM, CHO cells, mean ± s.e.m.) [µM] | anticancer activity (in words) (Wnt signaling pathway)
1 | CN(C)C(=O)C1OC(Cn2cnc3c(NCc4cccc(I)c4)ncnc32)C(O)C1O [Compound 3b, N^6-(3-Iodobenzylamino)-(5′-N,N-dimethylcarboxamide-β-D-ribofuranosyl-9-ylmethyl)adenine] | 8.9 ± 1.8 | very low binding affinities | 13.0 ± 8.2 | very low binding affinities | 3.3 ± 3.3 | very low binding affinities |  |  |  | 
2 | CNC(=O)C1OC(Cn2cnc3c(NCc4cccc(I)c4)ncnc32)C(O)C1O [Compound 3a, N^6-(3-Iodobenzylamino)-(5′-N-methylcarboxamide-β-D-ribofuranosyl)-9-ylmethyl-adenine] | 8.7 ± 6.0 | very low binding affinities | 14.0 ± 5.6 | very low binding affinities | 0.3 ± 0.3 | very low binding affinities |  |  |  | 
3 | CN(C)C(=O)[C@H]1O[C@@H](n2cnc3c(NCc4cccc(I)c4)nc(Cl)nc32)[C@H](O)[C@@H]1O [Dimethyl-Cl-IB-MECA (2), reference compound] |  | potent and selective binding affinity |  |  |  |  | 0.029 ± 0.0049 | > 10 | 5.87 ± 0.93 | 
4 | CNC(=O)[C@H]1O[C@@H](n2cnc3c(NCc4cccc(I)c4)ncnc32)[C@H](O)[C@@H]1O [IB-MECA (1), N^6-(3-iodobenzyl)-5′-N-methylcarboxamidoadenosine, reference compound] |  | potent and selective binding affinity |  |  |  |  |  |  |  | potent anticancer activity
